We go through 16 molecules from US12139492B2 (Endotarget Inc., priority 2021, dated 2024).

Holding throughout (type): cell-based
The subject of one experiment is JeKo-1 cells. Description: Antiproliferative effect, MTS cell viability assay, JeKo-1 cells. The note with it: Homo sapiens; JeKo-1 mantle cell lymphoma cells; read-out: IC50 (anti-proliferation) JeKO-1 cells. The procedure, abridged:
(§1)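 Absorbance at 490 nm of formazan, formed by metabolically active cells from MTS tetrazolium, served as the viability measure after a 72 h treatment across a 0.001–10 μM concentration series plus untreated control.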

The next experiment has as its target BTK (Homo sapiens, UniProt Q06187). Kind of experiment: BTK degradation, DC50 and Dmax of Table 1 (cell line not given). The note with it: for DC50: concentration giving 50% reduction of BTK expression level. Also noted: endogenous in cells.
The next experiment deals with Mino cells. Kind of experiment: Antiproliferative effect, MTS cell viability assay, Mino cells. The note with it: Homo sapiens, MINO, Mino mantle cell lymphoma cells; read-out: IC50 (anti-proliferation) Mino cells. The procedure, abridged:
as §1

BTK, sequence (Q06187 whole entry): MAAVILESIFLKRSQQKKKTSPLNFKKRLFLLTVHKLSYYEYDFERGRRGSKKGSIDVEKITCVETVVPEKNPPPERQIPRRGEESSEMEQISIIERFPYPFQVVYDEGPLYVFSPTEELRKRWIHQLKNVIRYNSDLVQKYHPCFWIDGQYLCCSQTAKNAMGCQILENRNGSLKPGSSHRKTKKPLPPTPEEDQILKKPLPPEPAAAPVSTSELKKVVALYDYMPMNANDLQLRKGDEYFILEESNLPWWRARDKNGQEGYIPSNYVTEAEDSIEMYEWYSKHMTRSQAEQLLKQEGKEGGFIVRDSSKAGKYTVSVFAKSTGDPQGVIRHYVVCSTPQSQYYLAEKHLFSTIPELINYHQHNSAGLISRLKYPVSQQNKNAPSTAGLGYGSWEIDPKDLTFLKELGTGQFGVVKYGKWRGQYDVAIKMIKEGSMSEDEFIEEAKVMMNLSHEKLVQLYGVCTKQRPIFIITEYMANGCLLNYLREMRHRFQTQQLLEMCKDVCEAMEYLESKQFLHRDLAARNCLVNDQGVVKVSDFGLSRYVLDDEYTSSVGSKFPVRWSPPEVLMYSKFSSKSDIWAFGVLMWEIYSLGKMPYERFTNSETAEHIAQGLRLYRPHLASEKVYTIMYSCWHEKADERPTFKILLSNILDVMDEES

For `Nc1ncnc2c1c(-c1ccc(Oc3ccccc3)cc1)nn2C1CCCN(CCOCCN2CCC(c3ccc4c(c3)CN(C3CCC(=O)NC3=O)C4=O)CC2)C1` (stereo not drawn) [Compound 16, 3-(5-(1-(2-(2-(3-(4-amino-3-(4-phenoxyphenyl)-1H-pyrazolo[3,4-d]pyrimidin-1-yl)piperidin-1-yl)ethoxy)ethyl)piperidin-4-yl)-1-oxoisoindolin-2-yl)piperidine-2,6-dione], the IC50 in the experiment with JeKo-1 cells fell in the range of 1000 to 10000 nM. At BTK, this molecule yielded a Dmax of more than 90% and a DC50 of 10 to 50 nM. Besides, the IC50 with Mino cells was in the range of 1000 to 10000 nM.
For `Nc1ncnc2c1c(-c1ccc(Oc3ccccc3)cc1)nn2C1CCN(CCOCCOCCC2CCN(c3ccc4c(c3)C(=O)N(C3CCC(=O)NC3=O)C4=O)CC2)CC1` (stereo not drawn) [Compound 17, 5-(4-(2-(2-(2-(4-(4-amino-3-(4-phenoxyphenyl)-1H-pyrazolo[3,4-d]pyrimidin-1-yl)piperidin-1-yl)ethoxy)ethoxy)ethyl)piperidin-1-yl)-2-(2,6-dioxopiperidin-3-yl)isoindoline-1,3-dione], the IC50 in the experiment with JeKo-1 cells was in the range of 1000 to 10000 nM. Besides, at BTK, the Dmax is more than 90% and the half-maximal degradation concentration (DC50) was less than 10 nM. In addition, in the experiment on Mino cells, the IC50 fell in the range of 1000 to 10000 nM.
On to `Nc1ncnc2c1c(-c1ccc(Oc3ccccc3)cc1)nn2C1CCN(CCOCCOCCC2CCN(c3ccc4c(c3)CN(C3CCC(=O)NC3=O)C4=O)CC2)CC1` (stereo not drawn) [Compound 18, 3-(5-(4-(2-(2-(2-(4-(4-amino-3-(4-phenoxyphenyl)-1H-pyrazolo[3,4-d]pyrimidin-1-yl)piperidin-1-yl)ethoxy)ethoxy)ethyl)piperidin-1-yl)-1-oxoisoindolin-2-yl)piperidine-2,6-dione], for which the IC50 with JeKo-1 cells was less than 1000 nM; in the experiment on Mino cells it was 1000 to 10000 nM. At BTK, this molecule gave a Dmax of more than 90%. The same molecule yielded a DC50 at BTK of less than 10 nM.
For `Nc1ncnc2c1c(-c1ccc(Oc3ccccc3)cc1)nn2C1CCN(CCOCCC2CCN(c3ccc4c(c3)C(=O)N(C3CCC(=O)NC3=O)C4=O)CC2)CC1` (stereo not drawn) [Compound 19, 5-(4-(2-(2-(4-(4-amino-3-(4-phenoxyphenyl)-1H-pyrazolo[3,4-d]pyrimidin-1-yl)piperidin-1-yl)ethoxy)ethyl)piperidin-1-yl)-2-(2,6-dioxopiperidin-3-yl)isoindoline-1,3-dione] the same measures were 1000 to 10000 nM, 1000 to 10000 nM, more than 90% and 10 to 50 nM.
For `Nc1ncnc2c1c(-c1ccc(Oc3ccccc3)cc1)nn2C1CCN(CCOCCC2CCN(c3ccc4c(c3)CN(C3CCC(=O)NC3=O)C4=O)CC2)CC1` (stereo not drawn) [Compound 20, 3-(5-(4-(2-(2-(4-(4-amino-3-(4-phenoxyphenyl)-1H-pyrazolo[3,4-d]pyrimidin-1-yl)piperidin-1-yl)ethoxy)ethyl)piperidin-1-yl)-1-oxoisoindolin-2-yl)piperidine-2,6-dione] the same measures were 1000 to 10000 nM, 1000 to 10000 nM, more than 90% and 10 to 50 nM.
For `Nc1ncnc2c1c(-c1ccc(Oc3ccccc3)cc1)nn2C1CCCN(CCOCCOCCC2CCN(c3ccc4c(c3)C(=O)N(C3CCC(=O)NC3=O)C4=O)CC2)C1` (stereo not drawn) [Compound 21, 5-(4-(2-(2-(2-(3-(4-amino-3-(4-phenoxyphenyl)-1H-pyrazolo[3,4-d]pyrimidin-1-yl)piperidin-1-yl)ethoxy)ethoxy)ethyl)piperidin-1-yl)-2-(2,6-dioxopiperidin-3-yl)isoindoline-1,3-dione] the same measures were 1000 to 10000 nM, 1000 to 10000 nM, more than 90% and less than 10 nM.
In the case of `Nc1ncnc2c1c(-c1ccc(Oc3ccccc3)cc1)nn2C1CCCN(CCOCCOCCC2CCN(c3ccc4c(c3)CN(C3CCC(=O)NC3=O)C4=O)CC2)C1` (stereo not drawn) [Compound 22, 3-(5-(4-(2-(2-(2-(3-(4-amino-3-(4-phenoxyphenyl)-1H-pyrazolo[3,4-d]pyrimidin-1-yl)piperidin-1-yl)ethoxy)ethoxy)ethyl)piperidin-1-yl)-1-oxoisoindolin-2-yl)piperidine-2,6-dione], the IC50 in the experiment on JeKo-1 cells was 1000 to 10000 nM; in the experiment on Mino cells it was less than 1000 nM. On BTK, this molecule returned a maximal degradation (Dmax) of more than 90%. The molecule also came in with a DC50 at BTK of less than 10 nM.
For `Nc1ncnc2c1c(-c1ccc(Oc3ccccc3)cc1)nn2C1CCCN(CCOCCC2CCN(c3ccc4c(c3)C(=O)N(C3CCC(=O)NC3=O)C4=O)CC2)C1` (stereo not drawn) [Compound 23, 5-(4-(2-(2-(3-(4-amino-3-(4-phenoxyphenyl)-1H-pyrazolo[3,4-d]pyrimidin-1-yl)piperidin-1-yl)ethoxy)ethyl)piperidin-1-yl)-2-(2,6-dioxopiperidin-3-yl)isoindoline-1,3-dione] the same measures were 1000 to 10000 nM, 1000 to 10000 nM, more than 75% and more than 50 nM.
For `Nc1ncnc2c1c(-c1ccc(Oc3ccccc3)cc1)nn2[C@@H]1CCCN(CC2CCN(C(=O)N3CCN(c4ccc5c(c4)CN(C4CCC(=O)NC4=O)C5=O)CC3)CC2)C1` (stereo partly drawn) [Compound 26, 3-(5-(4-(4-(((R)-3-(4-amino-3-(4-phenoxyphenyl)-1H-pyrazolo[3,4-d]pyrimidin-1-yl)piperidin-1-yl)methyl)piperidine-1-carbonyl)piperazin-1-yl)-1-oxoisoindolin-2-yl)piperidine-2,6-dione] the same measures were 1000 to 10000 nM, 1000 to 10000 nM, more than 75% and more than 50 nM.
Turning to `Nc1ncnc2c1c(-c1ccc(Oc3ccccc3)cc1)nn2[C@@H]1CCCN(CC2CCN(C(=O)N3CCC(C4CCN(c5ccc6c(c5)CN(C5CCC(=O)NC5=O)C6=O)CC4)CC3)CC2)C1` (stereo partly drawn) [Compound 30, 3-(5-(1′-(4-(((R)-3-(4-amino-3-(4-phenoxyphenyl)-1H-pyrazolo[3,4-d]pyrimidin-1-yl)piperidin-1-yl)methyl)piperidine-1-carbonyl)-[4,4′-bipiperidin]-1-yl)-1-oxoisoindolin-2-yl)piperidine-2,6-dione], the IC50 in the experiment on JeKo-1 cells and with Mino cells was 1000 to 10000 nM in each case. The same molecule displayed a Dmax on BTK of more than 90%. In addition, the DC50 at BTK was in the range of 10 to 50 nM.
With `Nc1ncnc2c1c(-c1ccc(Oc3ccccc3)cc1)nn2[C@@H]1CCCN(CC2CCN(C(=O)N3CCC(CN4CCN(c5ccc6c(c5)CN(C5CCC(=O)NC5=O)C6=O)CC4)CC3)CC2)C1` (stereo partly drawn) [Compound 32, 3-(5-(4-((1-(4-(((R)-3-(4-amino-3-(4-phenoxyphenyl)-1H-pyrazolo[3,4-d]pyrimidin-1-yl)piperidin-1-yl)methyl)piperidine-1-carbonyl)piperidin-4-yl)methyl)piperazin-1-yl)-1-oxoisoindolin-2-yl)piperidine-2,6-dione], the IC50 in the experiment with JeKo-1 cells and in the experiment with Mino cells was 1000 to 10000 nM throughout. This molecule also returned a Dmax at BTK of more than 90%. The DC50 on BTK lay in the range of 10 to 50 nM.
With `Nc1ncnc2c1c(-c1ccc(Oc3ccccc3)cc1)nn2[C@@H]1CCCN(CC2CCN(C(=O)N3CCC(CCN4CCN(c5ccc6c(c5)CN(C5CCC(=O)NC5=O)C6=O)CC4)CC3)CC2)C1` (stereo partly drawn) [Compound 34, 3-(5-(4-(2-(1-(4-(((R)-3-(4-amino-3-(4-phenoxyphenyl)-1H-pyrazolo[3,4-d]pyrimidin-1-yl)piperidin-1-yl)methyl)piperidine-1-carbonyl)piperidin-4-yl)ethyl)piperazin-1-yl)-1-oxoisoindolin-2-yl)piperidine-2,6-dione], the IC50 in the experiment on JeKo-1 cells and in the experiment on Mino cells was 1000 to 10000 nM throughout. For the same molecule, the Dmax at BTK was more than 90%. At BTK, this molecule yielded a DC50 of more than 50 nM.
With `Nc1ncnc2c1c(-c1ccc(Oc3ccccc3)cc1)nn2C1CCN(CC2CCN(C(=O)N3CCC(N4CCN(c5ccc6c(c5)CN(C5CCC(=O)NC5=O)C6=O)CC4)CC3)CC2)CC1` (stereo not drawn) [Compound 38, 3-(5-(4-(1-(4-((4-(4-amino-3-(4-phenoxyphenyl)-1H-pyrazolo[3,4-d]pyrimidin-1-yl)piperidin-1-yl)methyl)piperidine-1-carbonyl)piperidin-4-yl)piperazin-1-yl)-1-oxoisoindolin-2-yl)piperidine-2,6-dione], the IC50 in the experiment on JeKo-1 cells was less than 1000 nM. At BTK, this molecule displayed a Dmax of more than 90% and a DC50 of 10 to 50 nM. Further, the IC50 in the experiment on Mino cells was less than 1000 nM.
`Nc1ncnc2c1c(-c1ccc(Oc3ccccc3)cc1)nn2C1CCN(CC2CCN(C(=O)N3CCC(C4CCN(c5ccc6c(c5)CN(C5CCC(=O)NC5=O)C6=O)CC4)CC3)CC2)CC1` (stereo not drawn) [Compound 40, 3-(5-(1′-(4-((4-(4-amino-3-(4-phenoxyphenyl)-1H-pyrazolo[3,4-d]pyrimidin-1-yl)piperidin-1-yl)methyl)piperidine-1-carbonyl)-[4,4′-bipiperidin]-1-yl)-1-oxoisoindolin-2-yl)piperidine-2,6-dione]: the IC50 with JeKo-1 cells fell in the range of 1000 to 10000 nM. On BTK, this molecule gave a Dmax of more than 90% and a half-maximal degradation concentration (DC50) of more than 50 nM. The IC50 with Mino cells was 1000 to 10000 nM.
For the molecule `Nc1ncnc2c1c(-c1ccc(Oc3ccccc3)cc1)nn2C1CCN(CC2CCN(C(=O)N3CCC(CN4CCN(c5ccc6c(c5)CN(C5CCC(=O)NC5=O)C6=O)CC4)CC3)CC2)CC1` (stereo not drawn) [Compound 42, 3-(5-(4-((1-(4-((4-(4-amino-3-(4-phenoxyphenyl)-1H-pyrazolo[3,4-d]pyrimidin-1-yl)piperidin-1-yl)methyl)piperidine-1-carbonyl)piperidin-4-yl)methyl)piperazin-1-yl)-1-oxoisoindolin-2-yl)piperidine-2,6 dione], in the experiment with JeKo-1 cells, the IC50 is less than 1000 nM. On BTK, this molecule came in with a Dmax of more than 90% and a DC50 of 10 to 50 nM. Besides, the IC50 in the experiment on Mino cells is less than 1000 nM.
Turning to `Nc1ncnc2c1c(-c1ccc(Oc3ccccc3)cc1)nn2C1CCN(CC2CCN(C(=O)N3CCC(CCN4CCN(c5ccc6c(c5)C(=O)N(C5CCC(=O)NC5=O)C6=O)CC4)CC3)CC2)CC1` (stereo not drawn) [Compound 43, 5-(4-(2-(1-(4-((4-(4-amino-3-(4-phenoxyphenyl)-1H-pyrazolo[3,4-d]pyrimidin-1-yl)piperidin-1-yl)methyl)piperidine-1-carbonyl)piperidin-4-yl)ethyl)piperazin-1-yl)-2-(2,6-dioxopiperidin-3-yl)isoindoline-1,3-dione], the IC50 with JeKo-1 cells and in the experiment with Mino cells was 1000 to 10000 nM each time. This molecule displayed a Dmax at BTK of more than 90%.

As usually defined, the Dmax is the greatest extent of degradation seen. Read a high Dmax as a fuller loss of target. One may read the DC50 as the concentration at which degradation of the target reaches its halfway point. Read a low DC50 as a more potent degrader.
